Measurements as given in US9907800B2, “Kinase inhibitors and method of treating cancer” (University Health Network, priority 2010, dated 2018).
Counter-ions that a name gives are not always drawn. Like-named read-outs stand apart in the source and are kept apart here.

Experiments:
[1] = target: human PLK4 (Homo sapiens (Human), UniProt O00444); assay: PLK4 inhibition assay (indirect ELISA); assay type: biochemical
Experimental: PLK4 activity was measured using an indirect ELISA detection system. […] The colourimetric reaction was allowed to continue for 5 minutes, followed by addition of stop solution (0.5 N sulphuric acid), and quantified by detection at 450 nm with either a monochromatic or filter based plate reader (Molecular Devices M5 or Beckman DTX880, respectively).
Compounds were pre-incubated in the presence of enzyme for 15 minutes prior to addition of ATP and the activity remaining quantified using the above described activity assay. […] The IC50 value was determined using a non-linear 4 point logistic curve fit (XLfit4, IDBS) with the formula; (A+(B/(1+((x/C)^D)))), where A=background value, B=range, C=inflection point, D=curve fit parameter.

[2] = target: Aurora B (Homo sapiens (Human), UniProt Q96GD4); assay: Aurora B inhibition assay (Z-Lyte); assay type: biochemical; conditions: read-out: Aurora B IC50 Ranges
Sequence of Aurora B (Q96GD4 whole entry): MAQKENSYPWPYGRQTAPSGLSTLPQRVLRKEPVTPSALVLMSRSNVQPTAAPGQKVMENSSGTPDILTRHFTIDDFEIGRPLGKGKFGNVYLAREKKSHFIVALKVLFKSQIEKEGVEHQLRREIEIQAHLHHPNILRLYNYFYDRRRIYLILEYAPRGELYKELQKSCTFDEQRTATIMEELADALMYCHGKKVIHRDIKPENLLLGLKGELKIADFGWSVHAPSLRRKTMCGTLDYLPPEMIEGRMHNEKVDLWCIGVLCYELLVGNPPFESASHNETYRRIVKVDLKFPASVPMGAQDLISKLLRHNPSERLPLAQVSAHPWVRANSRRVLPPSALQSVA
Experimental: Aurora B inhibition was determined using the Z-Lyte assay kit from Invitrogen. […] The % inhibition values were determined according to the manufacturer's directions and IC50 values were obtained using a non-linear 4 point logistic curve fit (XLfit4, IDBS)

Sequence of human PLK4 (O00444 1-391): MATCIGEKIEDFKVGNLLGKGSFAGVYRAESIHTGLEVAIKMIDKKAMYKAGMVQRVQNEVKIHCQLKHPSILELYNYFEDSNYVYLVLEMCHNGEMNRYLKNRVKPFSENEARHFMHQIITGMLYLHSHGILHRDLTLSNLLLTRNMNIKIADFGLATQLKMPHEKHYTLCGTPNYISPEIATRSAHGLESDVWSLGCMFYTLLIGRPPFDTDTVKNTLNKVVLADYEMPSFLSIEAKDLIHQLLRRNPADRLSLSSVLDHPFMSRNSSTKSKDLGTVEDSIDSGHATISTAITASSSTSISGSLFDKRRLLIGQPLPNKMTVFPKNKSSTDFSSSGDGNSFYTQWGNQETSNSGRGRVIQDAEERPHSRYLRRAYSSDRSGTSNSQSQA

SMILES	IC50 ([1]; read-out: PLK4 IC50 Ranges)	IC50 [2]	IC50 [1]
O=C1Nc2ccccc2[C@]12C[C@H]2c1ccc2[nH]ncc2c1 (relative stereo) [Example A1, (1R*,2S*)-2-(1H-indazol-5-yl)spiro[cyclopropane-1,3′-indolin]-2′-one]	> 1000 nM		
O=C1Nc2ccccc2[C@]12C[C@H]2c1ccc2c(I)n[nH]c2c1 (relative stereo) [Example A9, (1R*,2S*)-2-(3-iodo-1H-indazol-6-yl)spiro[cyclopropane-1,3′-indolin]-2′-one]		100 to 1000 nM	
O=C1Nc2ncc(Br)cc2[C@]12C[C@H]2c1ccc2c(/C=C/c3cccnc3)n[nH]c2c1 (relative stereo) [Example A27, (1R*,2S*)-5′-bromo-2-(3-((E)-2-(pyridin-3-yl)vinyl-1H-indazol-6-yl)spiro[cyclopropane-1,3′-pyrrolo[2,3-b]pyridin]-2′(1′H)-one]	< 100 nM	< 100 nM	
COc1ccc2c(c1)[C@]1(C[C@H]1c1ccc3c(-c4ccnc(N5CCN(C)CC5)c4)n[nH]c3c1)C(=O)N2 (relative stereo) [Example A37, (1R*,2S*)-5′-Methoxy-2-(3-(2-(4-methylpiperazin-1-yl)pyridin-4-yl)-1H-indazol-6-yl)spiro[cyclopropane-1,3′-indolin]-2′-one]	< 100 nM	< 100 nM	
COc1ccc2c(c1)[C@]1(C[C@H]1c1ccc3c(-c4cccc(CO)c4)n[nH]c3c1)C(=O)N2 (relative stereo) [Example A43, (1R*,2S*)-2-(3-(3-(hydroxymethyl)phenyl)-1H-indazol-6-yl)-5′-methoxy spiro[cyclopropane-1,3′-indolin]-2′-one 2,2,2-trifluoroacetate]	< 100 nM	< 100 nM	
COc1ccc2c(c1)[C@]1(C[C@H]1c1ccc3c(-c4cccc(CCO)c4)n[nH]c3c1)C(=O)N2 (relative stereo) [Example A46, (1R*,2S*)-2-(3-(3-(2-hydroxyethyl)phenyl)-1H-indazol-6-yl)-5′-methoxy spiro[cyclopropane-1,3′-indolin]-2′-one]	< 100 nM		
COc1ccc2c(c1)[C@]1(C[C@H]1c1ccc3c(-c4ccc(N5CCNCC5)cc4)n[nH]c3c1)C(=O)N2 (relative stereo) [Example A48, (1R*,2S*)-5′-methoxy-2-(3-(4-(piperazin-1-yl)phenyl)-1H-indazol-6-yl)spiro[cyclopropane-1,3′-indolin]-2′-one 2,2,2-trifluoroacetate]		< 100 nM	< 100 nM
COc1ccc2c(c1)[C@]1(C[C@H]1c1ccc3c(C#Cc4cccnc4)n[nH]c3c1)C(=O)N2 (relative stereo) [Example A52, (1R*,2S*)- and (1R*,2S*)-5′-methoxy-2-(3-(pyridin-3-ethynyl)-1H-indazol-6-yl)spiro[cyclopropane-1,3′-indolin]-2′-one]	< 100 nM	< 100 nM	
CN1C(=O)[C@@]2(C[C@H]2c2ccc3c(-c4ccc(N5CCNCC5)cc4)n[nH]c3c2)c2ccccc21 (relative stereo) [Example A88, (1R*,2S*)-1′-methyl-2-(3-(4-(piperazin-1-yl)phenyl)-1H-indazol-6-yl)spiro[cyclopropane-1,3′-indolin]-2′-one 2,2,2-trifluoroacetate]	100 to 1000 nM		
COc1cc2c(cc1OC)[C@]1(C[C@H]1c1ccc3c(-c4cccc(CN5CCOCC5)c4)n[nH]c3c1)C(=O)N2 (relative stereo) [Example A143, (1R*,2S*)-5′,6′-dimethoxy-2-(3-(3-(morpholinomethyl)phenyl)-1H-indazol-6-yl)spiro[cyclopropane-1,3′-indolin]-2′-one 2,2,2-trifluoroacetate]	> 1000 nM		
COc1cc2c(cc1OC)[C@]1(C[C@H]1c1ccc3c(-c4ccc(N5CCN(C)CC5)cc4)n[nH]c3c1)C(=O)N2 (relative stereo) [Example A144, (1R*,2S*)-5′,6′-dimethoxy-2-(3-(4-(4-methylpiperazin-1-yl)phenyl)-1H-indazol-6-yl)spiro[cyclopropane-1,3′-indolin]-2′-one 2,2,2-trifluoroacetate]	100 to 1000 nM		
COc1ccc2c(c1)[C@@]1(C[C@@H]1c1ccc3c(I)n[nH]c3c1)C(=O)N2 [Example A8, (1S,2R)-2-(3-iodo-1H-indazol-6-yl)-5′-methoxyspiro[cyclopropane-1,3′-indolin]-2′-one]	> 1000 nM		
O=C1Nc2ccccc2[C@]12C[C@H]2c1ccc2c(I)n[nH]c2c1 [Example A10, (1R,2S)-2-(3-iodo-1H-indazol-6-yl)spiro[cyclopropane-1,3′-indolin]-2′-one]		100 to 1000 nM	
O=C1Nc2ccccc2[C@]12C[C@H]2c1ccc2c(/C=C/c3csc(CN4CCOCC4)n3)n[nH]c2c1 [Example A77, (1R,2S)-2-(3-((E)-2-(2-(morpholinomethyl)thiazol-4-yl)vinyl)-1H-indazol-6-yl)spiro[cyclopropane-1,3′-indolin]-2′-one 2,2,2-trifluoroacetate salt]	< 100 nM		
COc1ccc2c(c1)[C@]1(C[C@H]1c1ccc3c(/C=C/c4ccc(CN5CCOCC5)cc4)n[nH]c3c1)C(=O)N2C [Example A102, (1R,2S)-(E)-5′-methoxy-1′-methyl-2-(3-(4-(morpholinomethyl)styryl)-1H-indazol-6-yl)spiro[cyclopropane-1,3′-indolin]-2′-one hydrochloride]		< 100 nM	
O=C1Nc2ccccc2[C@]12C[C@H]2c1ccc2c(/C=C/c3ccc4c(c3)CNCCO4)n[nH]c2c1 [Example A113, (1R,2S)-2-(3-((E)-2-(2,3,4,5-tetrahydrobenzo[f][1,4]oxazepin-7-yl)vinyl)-1H-indazol-6-yl)spiro[cyclopropane-1,3′-indolin]-2′-one 2,2,2-trifluoroacetate]	< 100 nM		
C/C(=C\c1ccc(CN2CCOCC2)cc1)c1n[nH]c2cc([C@@H]3C[C@@]34C(=O)Nc3ccccc34)ccc12 [Example A114, (1R,2S)-2-(3-((E)-1-(4-(morpholinomethyl)phenyl)prop-1-en-2-yl)-1H-indazol-6-yl)spiro[cyclopropane-1,3′-indolin]-2′-one 2,2,2-trifluoroacetate]	< 100 nM		
CN1C(=O)[C@@]2(C[C@H]2c2ccc3c(/C=C/c4ccc(CN5CCCC5)cc4)n[nH]c3c2)c2ccccc21 [Example A115, (1R,2S)-(E)-1′-methyl-2-(3-(4-(pyrrolidin-1-ylmethyl)styryl)-1H-indazol-6-yl)spiro[cyclopropane-1,3′-indolin]-2′-one 2,2,2-trifluoroacetate]	< 100 nM		
COc1ccc2c(c1)[C@]1(C[C@H]1c1ccc3c(-c4ccc(C5(F)CCN(C)CC5)cc4)n[nH]c3c1)C(=O)N2 [Example A124, (1R,2S)-2-(3-(4-(4-fluoro-1-methylpiperidin-4-yl)phenyl)-1H-indazol-6-yl)-5′-methoxyspiro[cyclopropane-1,3′-indolin]-2′-one 2,2,2-trifluoroacetate]	< 100 nM		
COc1ccc2c(c1)[C@]1(C[C@H]1c1ccc3c(-c4csc(CN5CCOCC5)c4)n[nH]c3c1)C(=O)N2 [Example A125, (1R,2S)-5′-methoxy-2-(3-(5-(morpholinomethyl)thiophen-3-yl)-1H-indazol-6-yl)spiro[cyclopropane-1,3′-indolin]-2′-one 2,2,2-trifluoroacetate]	< 100 nM		
COc1ccc2c(c1)[C@]1(C[C@H]1c1ccc3c(/C=C/c4ccc(CCN5CCOCC5)cc4)n[nH]c3c1)C(=O)N2 [Example A177, (1R,2S)-(E)-5′-methoxy-2-(3-(4-(2-morpholinoethyl)styryl)-1H-indazol-6-yl)spiro[cyclopropane-1,3′-indolin]-2′-one 2,2,2-trifluoroacetate]		< 100 nM	
